Data published in PMC4680857, “Rat and human STINGs profile similarly towards anticancer/antiviral compounds” (Scientific Reports, 2015).
Changes are numbered by the printed parent chain. Like-named read-outs stand apart in the source and are kept apart here.

How the values were obtained:
[1] = target: T1, rSTING CTD (residues 155–341) (Rattus norvegicus, UniProt F1M391); assay: ITC binding to rSTING-CTD
T1 construct: rSTING (residues 155–341); His tag (TEV protease-cleavable) (N); made in house; host or cells: Escherichia coli BL21 (DE3)
T1 sequence (F1M391 155-341): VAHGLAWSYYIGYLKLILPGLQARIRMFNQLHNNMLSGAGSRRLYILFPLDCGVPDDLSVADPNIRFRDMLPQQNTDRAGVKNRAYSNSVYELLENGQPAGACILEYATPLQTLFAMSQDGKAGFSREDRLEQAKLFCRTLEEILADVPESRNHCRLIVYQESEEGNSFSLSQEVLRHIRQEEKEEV
Protocol: (§1) The plasimids of pET28a-rSTING^CTD, hSTING^CTD, mSTING^CTD and their variants were transformed into Escherichia coli BL21 (DE3) cells for overexpression. Cells were induced at 18 °C with 0.5 mM isopropyl β-d-1-thiogalactopyranoside for 20 hours, then collected and resuspended in buffer A (20 mM Tris-HCl, pH 8.0, 500 mM NaCl). Cells were subjected to ultrasonic lysis and clarified by centrifugation at 21,500 rpm for 90 minutes. Supernatants were loaded onto a HiTrap HP column (GE Healthcare, USA) equilibrated with buffer A. The contaminants were washed with buffer A containing 100 mM imidazole. The target proteins were eluted with buffer A containing 500 mM imidazole. Eluates were further purified by ion-exchange chromatography (HiTrap Q, GE Healthcare) and eluted with a linear sodium chloride gradient. Further purification steps were conducted through gel filtration (Superdex-200; GE Healthcare) equilibrated with 20 mM Tris–HCl, pH 8.0, 200 mM NaCl.
(§2) ITC measurements were performed with an iTC200 instrument (GE Healthcare) at 25 °C. […] A typical titration experiment involved 19 injections of ligand (2 mM) solution into the ITC cell containing protein (0.2 mM). The data were fitted to titration curves with Origin v7.0 (MicroCal).

[2] = system: hSTING haplotypes with residue 230 mutations; assay: IFN-β luciferase assay, residue 230 mutations in hSTING haplotypes; type: cell-based, human; conditions: 2′3′-cGAMP stimulation (Fig. 5c)
[3] = target: T2, hSTING CTD (residues 155–341) (Homo sapiens, UniProt Q86WV6, G230A/H232R); assay: ITC binding to hSTING-CTD
T2 construct: hSTING (residues 155–341); His tag (TEV protease-cleavable) (N); made in house; host or cells: Escherichia coli BL21 (DE3)
T2 sequence (Q86WV6 155-341 G230A/H232R): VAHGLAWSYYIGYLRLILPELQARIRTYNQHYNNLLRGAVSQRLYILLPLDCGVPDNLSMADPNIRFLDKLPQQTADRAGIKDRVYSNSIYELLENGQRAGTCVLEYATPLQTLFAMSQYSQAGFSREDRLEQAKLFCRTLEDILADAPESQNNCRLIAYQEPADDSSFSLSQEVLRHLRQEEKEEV
Protocol: as §1, §2

[4] = target: T3, rSTING T230L (Rattus norvegicus, UniProt F1M391, T230L); assay: ITC binding to rSTING T230L
T3 construct: rSTING (residues 155–341); His tag (TEV protease-cleavable) (N); made in house; host or cells: Escherichia coli BL21 (DE3)
T3 sequence (F1M391 155-341 T230L): T1 sequence (F1M391 155-341) with T76L
Description: The C-terminal domain of rSTING (residues 155–341), hSTING (residues 155–341), mSTING (residues 154–340) for ITC measurements, hereafter named rSTING^CTD, hSTING^CTD, mSTING^CTD, were constructed by cloning into pET28a vector between Nde I and Xho I restriction sites, which contains N-terminal TEV protease-cleavable His tag. All point mutations were generated by PCR-based site-directed mutagenesis method with KOD FX as the polymerase.
The plasimids of pET28a-rSTING^CTD, hSTING^CTD, mSTING^CTD and their variants were transformed into Escherichia coli BL21 (DE3) cells for overexpression. Cells were induced at 18 °C with 0.5 mM isopropyl β-d-1-thiogalactopyranoside for 20 hours, then collected and resuspended in buffer A (20 mM Tris-HCl, pH 8.0, 500 mM NaCl). Cells were subjected to ultrasonic lysis and clarified by centrifugation at 21,500 rpm for 90 minutes. Supernatants were loaded onto a HiTrap HP column (GE Healthcare, USA) equilibrated with buffer A. The contaminants were washed with buffer A containing 100 mM imidazole. The target proteins were eluted with buffer A containing 500 mM imidazole. Eluates were further purified by ion-exchange chromatography (HiTrap Q, GE Healthcare) and eluted with a linear sodium chloride gradient. Further purification steps were conducted through gel filtration (Superdex-200; GE Healthcare) equilibrated with 20 mM Tris–HCl, pH 8.0, 200 mM NaCl. […]

[5] = system: hSTING G230I variant; set-up: method as in Gao et al. [35]; conditions: ref Gao et al. [35]; cited from earlier work
[6] = target: T4, rSTING T230I (Rattus norvegicus, UniProt F1M391, T230I); assay: ITC binding to rSTING T230I
T4 construct: rSTING (residues 155–341); His tag (TEV protease-cleavable) (N); made in house; host or cells: Escherichia coli BL21 (DE3)
T4 sequence (F1M391 155-341 T230I): T1 sequence (F1M391 155-341) with T76I
Protocol: as §1, §2

[7] = system: hSTING with A230 replaced by Ile or Leu; assay: ITC binding to hSTING mutants (Fig. S6); set-up: species or system human
Protocol: as §2

Nc1nc2c(ncn2[C@@H]2O[C@@H]3COP(=O)(O)O[C@H]4[C@@H](O)[C@H](n5cnc6c(N)ncnc65)O[C@@H]4COP(=O)(O)O[C@@H]2[C@@H]3O)c(=O)[nH]1 [2′3′-cGAMP, cyclic GMP-AMP with 2′5′ and 3′5′ phosphodiester linkage]
Kd [1]: 120 ± 30 nM
binding affinity (in words) [1]: high binding affinities
cGAMP-induced IFN-β production, differences between residue 230 mutations [2]: no differences

Nc1nc2c(ncn2[C@@H]2O[C@@H]3COP(=O)(O)O[C@H]4[C@@H](O)[C@H](n5cnc6c(N)ncnc65)O[C@@H]4COP(=O)(O)O[C@H]3[C@H]2O)c(=O)[nH]1 [3′3′-cGAMP]
Kd ([1]; ITC, 25 °C, WT rSTING-CTD (T230)): 550 ± 110 nM
binding affinity (in words) ([1]; ITC, rSTING CTD): high binding affinities

Cc1ccc2c(=O)c3cccc(CC(=O)O)c3oc2c1C [DMXAA, 5,6-Dimethylxanthenone 4-acetic acid]
binding affinity (in words) [3]: none or only weak affinity
ΔH [4]: -2.31 ± 0.07 kcal/mol
ΔS [4]: 16.6 cal/mol/deg
binding affinity (in words) ([1]; ITC, rSTING CTD): none or only weak affinity
ΔH ([1]; ITC, rSTING T230(WT)): -2.77 ± 0.09 kcal/mol
ΔS ([1]; ITC, rSTING T230(WT)): 11.7 cal/mol/deg
response of STING variant to compound [5]: can respond
ΔH ([6]; rSTING T230I): -3.86 ± 0.10 kcal/mol
ΔS ([6]; rSTING T230I): 16.0 cal/mol/deg
binding affinity greater than that for WT rSTING ([6]; rSTING T230I vs WT rSTING): 50 fold
binding by ITC (in words) [7]: detectable binding
